# Several values for one entry are separate records, joined by “and”; a condition that tells them apart may be missing. Equal values may be shown once.
# Legend:
# T. brucei proteome = experiment: Label-free quantitative proteomics; type: cell-based, Trypanosoma brucei
# Procedure: Trypanosomes treated or not with 2 µM 7-CN-7-C-Ino (time course: 0 h, 6 h, 12 h) were washed twice in phosphate buffered saline (PBS) and lysed in Laemmli sample buffer to a concentration of 2.5×10^5 cells µl -1. Protein concentration was determined by Colloidal Coomassie Blue staining and densitometry. 20 µg of protein were loaded on a 10% acrylamide SDS-PAGE gel. Migration was stopped when samples had entered the resolving gel and proteins were visualized by Colloidal Coomassie Blue staining. Each SDS-PAGE band was cut into 1 mm × 1 mm gel pieces and further processed as described previously 26.
# Online nanoLC-MS/MS analyses were performed using an Ultimate 3000 RSLC Nano-UPHLC system (Thermo Scientific, USA) coupled to a nanospray Q-Exactive hybrid quadrupole-Orbitrap mass spectrometer (Thermo Scientific, USA). 1 µg of each peptide extract was loaded on a 300 µm ID x 5 mm PepMap C18 precolumn (Thermo Scientific, USA) at a flow rate of 20 µl min -1. After a 3 min desalting step, peptides were separated on a 75 µm ID x 25 cm C 18 Acclaim PepMap® RSLC column (Thermo Scientific, USA) with a 4-40% linear gradient of solvent B (0.1% formic acid in 80% ACN) in 108 min. The separation flow rate was set at 300 nl min-1. The mass spectrometer operated in positive ion mode at a 1.8 kV needle voltage. Data was acquired using Xcalibur 3.1 software in a data-dependent mod e. MS scans (m/z 300-1,600) were recorded at a resolution of R = 70,000 (@ m/z 200) and an AGC target of 3×10 6 ions collected within 100 ms. Dynamic exclusion was set to 30 s and top 12 ions were selected from fragmentation in HCD mode. MS/MS scans with a target value of 1×10 5 ions
# T. brucei BSF cells (WT) = experiment: Alamar blue cell viability assay, wild type;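 also: trypanosomes seeded at 5×10^3 per ml and grown 72 h with compound, then resazurin 0.5 mM added for 4 h as the viability read-out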
# [1] = tested on: RXXS*/T* site phosphorylation; experiment: Western blot of global RXXS*/T* site phosphorylation (phospho-PKA substrate antibody); type: cell-based, Trypanosoma brucei; conditions: wild type, 2 µM, 10 min
# human PKARIα = target: T1, human PKARIα (Homo sapiens, UniProt P10644); experiment: Binding by isothermal titration calorimetry (ITC)
# T1 construct: The full length ORFs (amplified with primers introducing the respective); 6xHis followed by TEV site (N); made in house; host or cells: E. coli Rosetta D3
# [2] = target: T. brucei PKAR-PKAC1 holoenzyme (Trypanosoma brucei, UniProt Q9GU80); experiment: biochemical; type: biochemical; conditions: for In vitro kinase assay: technical replicates
# T. brucei PKAR(199–499) = T. brucei PKAR(199–499) (Trypanosoma brucei, UniProt Q9GU80); experiment: biochemical; type: binding; parameters: Thermodynamics (ITC) -TΔS / Thermodynamics (ITC) ΔG / Thermodynamics (ITC) ΔH: unit: kcal/mol
# [3] = WT trypanosomes, 12 hours treatment vs untreated, LFQ, three independent replicates
# Sequence of T. brucei PKAR(199–499) (Q9GU80 entry or part of it): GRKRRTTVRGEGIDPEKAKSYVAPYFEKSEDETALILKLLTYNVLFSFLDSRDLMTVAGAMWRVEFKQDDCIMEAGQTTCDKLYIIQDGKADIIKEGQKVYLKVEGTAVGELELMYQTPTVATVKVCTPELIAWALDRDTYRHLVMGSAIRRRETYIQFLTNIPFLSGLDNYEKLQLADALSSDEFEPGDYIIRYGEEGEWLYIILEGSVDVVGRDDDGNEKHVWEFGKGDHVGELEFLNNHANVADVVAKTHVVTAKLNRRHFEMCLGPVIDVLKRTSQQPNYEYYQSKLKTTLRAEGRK
# Sequence of T. brucei PKAR-PKAC1 holoenzyme (Q38DR5 entry or part of it): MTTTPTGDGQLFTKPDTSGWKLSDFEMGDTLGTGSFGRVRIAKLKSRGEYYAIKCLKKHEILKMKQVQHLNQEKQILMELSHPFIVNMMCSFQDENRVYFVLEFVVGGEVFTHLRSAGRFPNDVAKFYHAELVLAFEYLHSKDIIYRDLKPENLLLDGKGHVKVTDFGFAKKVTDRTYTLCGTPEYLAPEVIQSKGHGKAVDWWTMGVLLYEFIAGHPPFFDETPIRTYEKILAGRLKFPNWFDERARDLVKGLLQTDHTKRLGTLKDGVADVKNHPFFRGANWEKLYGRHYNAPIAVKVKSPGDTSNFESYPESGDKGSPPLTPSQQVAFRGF
# Sequence of T. brucei PKAR-PKAC1 holoenzyme (Q9GU80 entry or part of it): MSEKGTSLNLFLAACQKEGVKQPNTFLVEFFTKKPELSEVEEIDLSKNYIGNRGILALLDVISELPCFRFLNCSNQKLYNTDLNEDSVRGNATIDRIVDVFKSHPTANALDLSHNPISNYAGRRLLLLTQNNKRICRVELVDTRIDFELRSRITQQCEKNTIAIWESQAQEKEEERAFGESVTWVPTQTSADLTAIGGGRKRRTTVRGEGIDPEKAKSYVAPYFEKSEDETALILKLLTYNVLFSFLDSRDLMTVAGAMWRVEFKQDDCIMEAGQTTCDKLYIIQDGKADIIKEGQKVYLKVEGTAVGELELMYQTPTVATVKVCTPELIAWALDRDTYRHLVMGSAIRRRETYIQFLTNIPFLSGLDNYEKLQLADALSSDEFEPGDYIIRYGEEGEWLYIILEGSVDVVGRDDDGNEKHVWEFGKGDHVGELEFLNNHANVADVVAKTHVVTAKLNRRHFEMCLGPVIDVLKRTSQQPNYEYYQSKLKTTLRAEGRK
# T1 sequence (P10644 whole entry): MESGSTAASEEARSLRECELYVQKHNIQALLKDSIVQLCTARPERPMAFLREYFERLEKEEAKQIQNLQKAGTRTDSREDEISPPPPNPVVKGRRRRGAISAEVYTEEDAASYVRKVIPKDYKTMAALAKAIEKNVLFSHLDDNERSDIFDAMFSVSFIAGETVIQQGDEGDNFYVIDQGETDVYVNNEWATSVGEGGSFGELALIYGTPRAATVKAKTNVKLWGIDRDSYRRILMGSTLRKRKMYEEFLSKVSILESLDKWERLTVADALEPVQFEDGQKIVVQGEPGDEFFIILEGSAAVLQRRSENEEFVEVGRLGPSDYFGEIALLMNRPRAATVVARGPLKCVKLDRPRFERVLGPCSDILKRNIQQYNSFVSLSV
compound,measurement,setting,value
"N#Cc1cn([C@@H]2O[C@H](CO)[C@@H](O)[C@H]2O)c2ncnc(O)c12 [7-CN-7-C-Ino, 7-Cyano-7-deazainosine]","fold regulation KO12 vs KO0 (up/down), Tb927.2.5820 hypothetical protein","T. brucei proteome; PKAR knock out trypanosomes, 12 hours treatment vs untreated, LFQ, three independent replicates",1.69 ± 0.28 fold
same,"fold regulation WT12 vs WT0 (up/down), Tb927.10.12510 P-type H+-ATPase",T. brucei proteome; [3],0.60 ± 0.03 fold
same,"fold regulation WT12 vs WT0 (up/down), Tb927.10.2440 Metacaspase-4",T. brucei proteome; [3],0.65 ± 0.03 fold
same,"fold regulation WT12 vs WT0 (up/down), Tb927.10.8440 glucose transporter",T. brucei proteome; [3],1.56 ± 0.16 fold
same,"fold regulation WT12 vs WT0 (up/down), Tb927.11.14750 PSP1 C-terminal conserved region",T. brucei proteome; [3],0.52 ± 0.04 fold
same,"fold regulation WT12 vs WT0 (up/down), Tb927.2.5820 hypothetical protein",T. brucei proteome; [3],1.82 ± 0.31 fold
same,"fold regulation WT12 vs WT0 (up/down), Tb927.4.4310 Nucleoporin NUP64",T. brucei proteome; [3],0.65 ± 0.05 fold
same,"fold regulation WT12 vs WT0 (up/down), Tb927.7.3450 I/6 autoantigen",T. brucei proteome; [3],1.58 ± 0.04 fold
same,"fold regulation WT12 vs WT0 (up/down), Tb927.7.7520;Tb927.7.7530 receptor-type adenylate cyclase GRESAG 4",T. brucei proteome; [3],0.65 ± 0.02 fold
same,"fold regulation WT12 vs WT0 (up/down), Tb927.8.6760 IgE-dep. histamine-releasing factor",T. brucei proteome; [3],0.66 ± 0.01 fold
same,"fold regulation WT12 vs WT0 (up/down), Tb927.8.7780 hypothetical protein",T. brucei proteome; [3],1.55 ± 0.08 fold
same,"fold regulation WT12 vs WT0 (up/down), Tb927.9.10100 hypothetical protein",T. brucei proteome; [3],0.53 ± 0.02 fold
same,"fold regulation WT12 vs WT0 (up/down), Tb927.9.11100 cAMP-dependent protein kinase catalytic subunit 1",T. brucei proteome; [3],0.36 ± 0.01 fold
same,"fold regulation WT12 vs WT0 (up/down), Tb927.9.12380 Histidine phosphatase superfamily (branch 1)",T. brucei proteome; [3],0.48 ± 0.11 fold
same,"fold regulation WT12 vs WT0 (up/down), Tb927.9.2670 Engulfment and cell motility domain-containing protein",T. brucei proteome; [3],1.70 ± 0.08 fold
same,"significantly regulated proteins, in words","T. brucei proteome; wild type, 6 h post induction",No significantly regulated proteins
same,significantly regulated proteins (number),"T. brucei proteome; wild type, 12 h post induction, ≥[…], p ≤ 0.05",14
same,increase of EC50 for cell viability compared to Toyo,T. brucei BSF cells (WT),> 170 fold
same,IC50,"T. brucei BSF cells (WT); Trypanosoma brucei, 72 h, read-out: IC50 growth WT",≥ 125 µM
same,EC50,"T. brucei BSF cells (WT); Trypanosoma brucei, read-out: EC50, Alamar blue cell viability assay, WT, individual replicate results, wild type cells, fit ambiguous, bound given in µM",> 125 µM
same,"effect on growth or viability, in words",T. brucei BSF cells (WT); continuous treatment,does not produce these PKA-independent effects
same,increase in global RXXS*/T* site phosphorylation,[1],3–4 fold
same,"binding to purified human PKARIα, in words",human PKARIα,did not bind
same,In vitro kinase assay,[2]; 0.00014 µM,0.05 U/ml and 0.04 U/ml (2×)
same,In vitro kinase assay,[2]; 0.00041 µM,0.05 U/ml
same,In vitro kinase assay,[2]; 0.00123 µM,0.08 U/ml and 0.07 U/ml (2×)
same,In vitro kinase assay,[2]; 0.0037 µM,0.12 U/ml
same,In vitro kinase assay,[2]; 0.01111 µM,0.16 U/ml (2×) and 0.18 U/ml
same,In vitro kinase assay,[2]; 0.03333 µM,0.2 U/ml and 0.19 U/ml (2×)
same,In vitro kinase assay,[2]; 0.1 µM,0.18 U/ml and 0.17 U/ml and 0.19 U/ml
same,In vitro kinase assay,[2]; 0.3 µM,0.17 U/ml and 0.2 U/ml and 0.16 U/ml
same,higher activation potency on purified holoenzyme compared to Toyo,[2]; ratio of EC50,36 fold
same,Kd,"T. brucei PKAR(199–499); 298 K, mean ± SD, n=3, read-out: KD in vitro binding to PKAR (ITC)",0.008 ± 0.002 µM
same,−TΔS (entropic component of binding),"T. brucei PKAR(199–499); ITC, mean",-2.3 kcal/mol
same,Thermodynamics (ITC) -TΔS,T. brucei PKAR(199–499); independent replicates,-2.82 and -2.13 and -1.91
same,Thermodynamics (ITC) ΔG,T. brucei PKAR(199–499); independent replicates,-11.3 and -10.9 and -11
same,Thermodynamics (ITC) ΔH,T. brucei PKAR(199–499); independent replicates,-8.48 and -8.8 and -9.1
same,Molar ratio of binding (ITC),"T. brucei PKAR(199–499); ligand to protein, mean ± SD, n=3",2 ± 0.2
same,higher binding affinity to PKAR compared to Toyo,T. brucei PKAR(199–499); ratio of KD,7 fold
